Reference: ChEMBL document CHEMBL4507291 (2021)

Columns and labels:
[1] = molecular target: Alpha-1B adrenergic receptor (Homo sapiens) (UniProt P35368); conditions: Compound concentration 10.0 uM
[2] = molecular target: T1, Alpha-1D adrenergic receptor (Homo sapiens) (UniProt P25100); test: Inhibition of Adrenergic alpha1D at 10 µM in the Eurofins-Panlabs radioligand binding assay (Eurofins_assay_203400); conditions: Compound concentration 10.0 uM
T1 sequence (whole entry): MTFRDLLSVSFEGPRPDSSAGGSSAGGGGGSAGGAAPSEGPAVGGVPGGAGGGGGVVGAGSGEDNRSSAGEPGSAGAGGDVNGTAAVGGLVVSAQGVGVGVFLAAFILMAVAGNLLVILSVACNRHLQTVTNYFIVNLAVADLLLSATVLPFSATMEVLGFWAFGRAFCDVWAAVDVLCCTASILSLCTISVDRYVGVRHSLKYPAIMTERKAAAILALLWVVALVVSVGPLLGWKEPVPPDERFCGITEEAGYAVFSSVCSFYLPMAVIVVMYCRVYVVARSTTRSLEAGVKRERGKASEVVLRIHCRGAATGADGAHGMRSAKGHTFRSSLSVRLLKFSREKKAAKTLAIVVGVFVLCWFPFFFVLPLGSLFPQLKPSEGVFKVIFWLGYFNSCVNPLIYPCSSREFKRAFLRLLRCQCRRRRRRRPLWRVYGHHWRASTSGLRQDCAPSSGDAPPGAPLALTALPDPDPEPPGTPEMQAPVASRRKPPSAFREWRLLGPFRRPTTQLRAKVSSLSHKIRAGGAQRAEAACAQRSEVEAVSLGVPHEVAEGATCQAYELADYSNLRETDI

[3] = tested on: Dual specificity mitogen-activated protein kinase kinase 1 (Homo sapiens), Q02750 [S218D,S222D]; test: MAP2K1 (MEK1) S218D S222D Kinase screen; conditions: Compound concentration 1.0 uM
Dual specificity mitogen-activated protein kinase kinase 1 (Homo sapiens), Q02750 [S218D,S222D], sequence (Q02750 whole entry S218D/S222D): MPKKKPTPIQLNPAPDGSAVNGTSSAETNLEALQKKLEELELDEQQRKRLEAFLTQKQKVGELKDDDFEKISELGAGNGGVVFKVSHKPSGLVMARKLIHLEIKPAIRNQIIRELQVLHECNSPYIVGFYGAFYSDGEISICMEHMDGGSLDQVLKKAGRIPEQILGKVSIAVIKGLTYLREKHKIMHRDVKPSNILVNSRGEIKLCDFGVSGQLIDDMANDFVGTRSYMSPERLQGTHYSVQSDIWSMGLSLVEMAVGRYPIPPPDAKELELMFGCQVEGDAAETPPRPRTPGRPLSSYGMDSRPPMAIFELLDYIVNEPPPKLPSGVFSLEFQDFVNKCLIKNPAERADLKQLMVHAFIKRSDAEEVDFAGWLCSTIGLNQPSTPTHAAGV

[4] = molecular target: T2, Tyrosine-protein kinase JAK3 (Homo sapiens) (UniProt P52333); test: JAK3 Kinase screen; conditions: Compound concentration 1.0 uM
T2 sequence (whole entry): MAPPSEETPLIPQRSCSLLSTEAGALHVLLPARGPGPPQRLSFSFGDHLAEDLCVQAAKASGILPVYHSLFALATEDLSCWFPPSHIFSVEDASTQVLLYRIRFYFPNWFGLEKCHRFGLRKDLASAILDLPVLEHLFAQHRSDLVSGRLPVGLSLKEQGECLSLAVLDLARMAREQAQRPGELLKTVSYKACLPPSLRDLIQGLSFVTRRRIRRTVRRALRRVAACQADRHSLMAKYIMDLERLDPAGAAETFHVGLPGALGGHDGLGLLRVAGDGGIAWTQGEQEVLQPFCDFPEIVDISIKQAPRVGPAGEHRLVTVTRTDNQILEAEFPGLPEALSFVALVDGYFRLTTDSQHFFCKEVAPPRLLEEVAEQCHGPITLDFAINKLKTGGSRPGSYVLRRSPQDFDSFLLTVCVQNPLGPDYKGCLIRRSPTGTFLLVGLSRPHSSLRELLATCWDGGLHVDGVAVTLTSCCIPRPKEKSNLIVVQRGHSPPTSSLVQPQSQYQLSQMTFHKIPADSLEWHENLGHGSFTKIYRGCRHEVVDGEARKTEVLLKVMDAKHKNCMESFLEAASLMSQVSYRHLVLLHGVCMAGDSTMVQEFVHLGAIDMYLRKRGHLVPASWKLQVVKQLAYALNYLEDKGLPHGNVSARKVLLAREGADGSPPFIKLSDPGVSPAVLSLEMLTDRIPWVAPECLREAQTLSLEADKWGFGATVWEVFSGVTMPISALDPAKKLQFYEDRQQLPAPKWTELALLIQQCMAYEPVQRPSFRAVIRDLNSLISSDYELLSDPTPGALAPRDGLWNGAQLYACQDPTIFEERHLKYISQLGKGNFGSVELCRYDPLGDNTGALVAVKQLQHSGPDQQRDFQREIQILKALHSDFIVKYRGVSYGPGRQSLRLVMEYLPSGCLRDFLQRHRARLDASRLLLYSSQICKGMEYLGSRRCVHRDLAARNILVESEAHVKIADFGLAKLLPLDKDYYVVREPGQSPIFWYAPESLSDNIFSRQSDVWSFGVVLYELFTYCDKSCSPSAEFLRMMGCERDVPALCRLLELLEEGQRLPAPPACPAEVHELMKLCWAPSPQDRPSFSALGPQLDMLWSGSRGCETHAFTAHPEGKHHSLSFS

[5] = tested on: RAF proto-oncogene serine/threonine-protein kinase (Homo sapiens), P04049 [Y340D,Y341D]; test: RAF1 (cRAF) Y340D Y341D Kinase screen; conditions: Compound concentration 1.0 uM
RAF proto-oncogene serine/threonine-protein kinase (Homo sapiens), P04049 [Y340D,Y341D], sequence (P04049 whole entry Y340D/Y341D): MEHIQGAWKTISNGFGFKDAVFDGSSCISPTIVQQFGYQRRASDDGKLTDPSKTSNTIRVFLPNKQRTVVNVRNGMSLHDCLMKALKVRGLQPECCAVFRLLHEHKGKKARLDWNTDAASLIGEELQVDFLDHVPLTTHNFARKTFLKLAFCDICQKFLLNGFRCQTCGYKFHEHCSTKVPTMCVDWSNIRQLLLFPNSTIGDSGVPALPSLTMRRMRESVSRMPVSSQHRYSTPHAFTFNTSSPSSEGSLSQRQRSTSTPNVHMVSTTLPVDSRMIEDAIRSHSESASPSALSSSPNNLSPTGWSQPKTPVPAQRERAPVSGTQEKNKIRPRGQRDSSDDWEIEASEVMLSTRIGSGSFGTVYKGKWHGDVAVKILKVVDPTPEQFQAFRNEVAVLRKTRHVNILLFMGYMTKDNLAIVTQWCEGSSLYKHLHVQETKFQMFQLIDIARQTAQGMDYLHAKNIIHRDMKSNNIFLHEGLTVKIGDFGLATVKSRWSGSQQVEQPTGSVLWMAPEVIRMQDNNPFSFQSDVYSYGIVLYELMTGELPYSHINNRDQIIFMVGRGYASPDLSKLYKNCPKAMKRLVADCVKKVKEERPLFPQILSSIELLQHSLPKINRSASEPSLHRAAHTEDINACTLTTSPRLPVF

[6] = molecular target: T3, Serine/threonine-protein kinase TAO3 (Homo sapiens) (UniProt Q9H2K8); test: TAOK3 (JIK) Kinase screen; conditions: Compound concentration 1.0 uM
T3 sequence (whole entry): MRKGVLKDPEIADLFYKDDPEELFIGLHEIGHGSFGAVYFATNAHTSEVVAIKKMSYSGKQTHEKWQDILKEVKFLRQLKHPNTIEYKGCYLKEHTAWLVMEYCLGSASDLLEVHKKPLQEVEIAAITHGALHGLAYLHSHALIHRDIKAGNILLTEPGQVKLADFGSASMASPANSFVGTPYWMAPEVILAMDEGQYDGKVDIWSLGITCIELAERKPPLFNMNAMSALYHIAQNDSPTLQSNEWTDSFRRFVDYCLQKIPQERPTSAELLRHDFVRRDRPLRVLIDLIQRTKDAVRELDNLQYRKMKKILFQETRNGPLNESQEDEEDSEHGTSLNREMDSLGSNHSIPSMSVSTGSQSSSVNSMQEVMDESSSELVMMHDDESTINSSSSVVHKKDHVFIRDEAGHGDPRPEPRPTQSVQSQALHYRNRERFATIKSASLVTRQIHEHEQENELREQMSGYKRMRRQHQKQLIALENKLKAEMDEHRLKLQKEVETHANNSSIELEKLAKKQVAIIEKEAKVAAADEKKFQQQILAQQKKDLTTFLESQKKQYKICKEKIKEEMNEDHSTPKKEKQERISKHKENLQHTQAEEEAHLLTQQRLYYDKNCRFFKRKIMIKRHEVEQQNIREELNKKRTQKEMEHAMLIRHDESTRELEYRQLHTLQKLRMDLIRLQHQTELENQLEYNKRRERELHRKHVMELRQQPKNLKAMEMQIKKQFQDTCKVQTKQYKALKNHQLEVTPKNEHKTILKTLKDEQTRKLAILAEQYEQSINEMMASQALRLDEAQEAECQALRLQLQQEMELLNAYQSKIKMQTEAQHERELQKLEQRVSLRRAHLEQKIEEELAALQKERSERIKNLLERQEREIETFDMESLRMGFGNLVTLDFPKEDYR

Measured: inhibition

Alpha-1B adrenergic receptor (Homo sapiens), sequence (P35368 whole entry): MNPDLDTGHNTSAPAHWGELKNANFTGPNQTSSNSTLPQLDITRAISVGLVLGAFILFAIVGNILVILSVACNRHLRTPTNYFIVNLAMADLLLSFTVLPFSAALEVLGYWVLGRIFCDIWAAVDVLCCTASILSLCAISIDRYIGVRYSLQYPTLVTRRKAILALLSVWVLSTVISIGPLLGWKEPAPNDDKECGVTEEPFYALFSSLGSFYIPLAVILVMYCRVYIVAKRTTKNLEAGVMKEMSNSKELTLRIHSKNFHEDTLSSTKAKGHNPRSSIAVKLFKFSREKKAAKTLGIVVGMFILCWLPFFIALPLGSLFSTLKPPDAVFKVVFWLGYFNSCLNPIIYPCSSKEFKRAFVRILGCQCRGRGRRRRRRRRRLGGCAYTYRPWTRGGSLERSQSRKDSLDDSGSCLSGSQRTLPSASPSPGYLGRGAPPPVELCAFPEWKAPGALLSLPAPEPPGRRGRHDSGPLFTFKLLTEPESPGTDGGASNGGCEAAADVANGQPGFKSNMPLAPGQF

C[C@@H]1CN(c2cc(-c3nn(C)c4ccc(OC5(C)CC5)cc34)ncn2)C[C@H](C)O1 [MLi-2-NC]
inactive: [1] 3.72%

C[C@@H]1CN(c2cc(-c3n[nH]c4ccc(OC5(C)CC5)cc34)ncn2)C[C@H](C)O1 [MLi-2]
inactive: [2] 1% | [3] 6.92% | [4] 7.05% | [5] 2.98% | [6] 0.385%
